Reference: patent US20260001928A1 (CORTERIA PHARMACEUTICALS, priority 2022, published 2026)
*1 amine or outer side, *2 acyl side, *3 side chain or, on linkers, in order; H or OH if unused. Where a SMILES comes first, the peptide text is derived from it. Side-chain parts run from the residue outwards. [ ]: non-standard residue; d: D form. The star is where a group is joined. C20 diacid = O=C(O)CCCCCCCCCCCCCCCCCCC(=O)*; C18 diacid = O=C(O)CCCCCCCCCCCCCCCCC(=O)*; C16 diacid = O=C(O)CCCCCCCCCCCCCCC(=O)*; γGlu = O=C(O)[C@H](CCC(=O)[*:2])N[*:1]; NMeI = CC[C@H](C)[C@H](NC)C(=O)O; Pentanoyl = CCCCC(=O)*; AEEA = NCCOCCOCC(=O)O; Ac3c = NC1(C(=O)O)CC1; Aib = CC(C)(N)C(=O)O

Experiments:
[1] = molecular target: T1, CFR1R receptor (Homo sapiens, UniProt P34998); assay: Activity at anti-target CFR1R receptor, cAMP assay in CRF1R-overexpression CHO-K1 cells; type: cell-based; conditions: 100% = Sauvagine at 100 nM; for EC50: cAMP
T1 construct: host or cells: CHO-K1 (clone 2)
T1 sequence (P34998 24-415): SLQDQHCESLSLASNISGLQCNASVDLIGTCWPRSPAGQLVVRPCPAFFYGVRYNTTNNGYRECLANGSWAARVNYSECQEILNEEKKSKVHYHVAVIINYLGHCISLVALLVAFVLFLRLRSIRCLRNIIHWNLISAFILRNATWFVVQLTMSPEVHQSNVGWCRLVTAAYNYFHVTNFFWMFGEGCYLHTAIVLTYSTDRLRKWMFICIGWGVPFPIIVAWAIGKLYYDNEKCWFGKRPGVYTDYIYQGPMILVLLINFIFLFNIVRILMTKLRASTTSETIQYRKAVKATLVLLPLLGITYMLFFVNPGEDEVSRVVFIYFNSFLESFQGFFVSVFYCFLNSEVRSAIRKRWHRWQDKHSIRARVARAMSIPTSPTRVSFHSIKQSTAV
Method in brief: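 cAMP readout in CRF1R-overexpressing CHO-K1 cells (clone 2), run as for the TeloHAEC assay at 4000 cells/well final. Cells came from cryopreserved banks. Sauvagine at 100 nM defined 100% activation.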

[2] = In vitro subcutaneous tissue supernatant (SCts) stability and metabolite identification, rat; type: in vitro ADME; design: remaining at 2 h: dose or concentration left out as unconfirmed; conditions: male, Sprague Dawley; rat subcutaneous tissue supernatant (SCts), 37° C, 2 h
Description: In vitro metabolic stability in subcutaneous tissue supernatant (SCts) was studied in male Sprague Dawley rats. Test compounds were incubated […] for 2 hours at 37° C.
Software aided in vitro metabolite identification on SCts stability samples was performed using either Metabolite Pilot (Sciex) or Biopharma Finder (Thermo). In addition, metabolite identification using Metabolite Pilot was performed on plasma samples of Comp Y following SC administration to rat at 1 mg/kg.

[3] = molecular target: T2, human CRF2a receptor (Homo sapiens, UniProt Q13324); assay: Activity at human CRF2a receptor, cAMP functional assay in TeloHEAC cells; type: cell-based; conditions: TeloHEAC cells stably expressing human CRF2a receptor, relative to urocortin 2 (100 nM = 100%)
T2 construct: expressed in transfected cells; host or cells: TeloHEAC cells
T2 sequence (Q13324 1-411): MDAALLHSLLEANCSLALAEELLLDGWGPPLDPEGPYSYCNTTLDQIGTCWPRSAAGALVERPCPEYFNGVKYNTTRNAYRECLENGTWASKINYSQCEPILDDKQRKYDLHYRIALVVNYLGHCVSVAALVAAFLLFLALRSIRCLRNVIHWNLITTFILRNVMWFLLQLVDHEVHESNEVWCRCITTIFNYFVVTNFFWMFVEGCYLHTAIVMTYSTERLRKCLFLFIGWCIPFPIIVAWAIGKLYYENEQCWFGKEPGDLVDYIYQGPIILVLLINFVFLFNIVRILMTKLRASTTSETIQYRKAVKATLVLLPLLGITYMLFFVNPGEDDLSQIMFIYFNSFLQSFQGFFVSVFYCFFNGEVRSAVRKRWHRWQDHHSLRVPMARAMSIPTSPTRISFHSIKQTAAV
Method in brief: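 TeloHEAC cells stably expressing human CRF2a (10000 cells/well) were treated with 16-point 1:2 compound dilutions in HBSS/20 mM HEPES with IBMX for 30 min at 37° C. cAMP was read by HTRF (665/620 nm ratio). EC50 was the concentration giving 50% activation, with 100 nM urocortin 2 set as 100%.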

[4] = Chemical stability in buffer (pH 7.4 / pH 4.5), % purity loss; type: physicochemical; conditions: 40° C. vs 5° C., 14 or 28 days; for Buffer stability pH 4.5 % purity loss: 100 mM acetate buffer pH 4.5; for Buffer stability pH 7.4 % purity loss: 100 mM phosphate buffer pH 7.4
Method in brief: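 Compounds dissolved at 10 mg/mL target in 100 mM phosphate (pH 7.4) or 100 mM acetate (pH 4.5) buffer for 1 h at room temperature, then centrifuged. Diluted supernatant stored at 5 °C or 40 °C for 14 or 28 days; % purity loss by LC-UV.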

| Compound | Emax (% I) [1] [% I] | EC50 [1] [nM] | remaining at 2 h [2] [%] | EC50 [3] [nM] | Buffer stability pH 4.5 % purity loss [4] | Buffer stability pH 7.4 % purity loss [4] |
| --- | --- | --- | --- | --- | --- | --- |
| CCCCC(=O)N[C@H](C(=O)N[C@@H](CC(C)C)C(=O)N[C@@H](CO)C(=O)N[C@@H](CC(C)C)C(=O)N[C@@H](CC(=O)O)C(=O)N[C@@H](C(=O)N1CCC[C@H]1C(=O)N[C@H](C(=O)N[C@@H](CCCCN)C(=O)N[C@@H](CC(C)C)C(=O)N[C@@H](CCCCNC(=O)COCCOCCNC(=O)COCCOCCNC(=O)CC[C@H](NC(=O)CCCCCCCCCCCCCCCCC(=O)O)C(=O)O)C(=O)N[C@@H](CCCCN)C(=O)N[C@H](C(=O)N[C@@H](CC(C)C)C(=O)N[C@@H](CC(C)C)C(=O)N[C@@H](CCC(=O)O)C(=O)N[C@@H](CCC(N)=O)C(=O)N[C@@H](CCC(=O)O)C(=O)N[C@@H](CCCCN)C(=O)N[C@@H](CCC(N)=O)C(=O)N[C@@H](CCCCN)C(=O)N[C@@H](CCCCN)C(=O)N[C@@H](CCC(N)=O)C(=O)N[C@@H](CCCNC(=N)N)C(=O)N[C@@H](CCC(=O)O)C(=O)N[C@@H](CCC(N)=O)C(=O)N[C@@H](C)C(=O)N[C@@H](CCC(=O)O)C(=O)N[C@H](C(=O)N[C@@H](CC(N)=O)C(=O)N[C@H](C(=O)N[C@@H](CCC(N)=O)C(=O)N[C@H](C(=O)N[C@@H](CC(C)C)C(=O)N[C@@H](C)C(=O)N[C@@H](CCC(N)=O)C(=O)N[C@H](C(N)=O)C(C)C)[C@@H](C)CC)C(C)C)[C@@H](C)O)[C@@H](C)CC)[C@@H](C)CC)C(C)C)C(C)C [compound 121] (Pentanoyl-VLSLD[dV]PIKLK([AEEA-AEEA-γGlu-C18 diacid])KILLEQEKQKKQREQAETNVQILAQV-NH2) | 6 | > 250 | 77 | 5.76 |  |  |
| CC[C@H](C)[C@H](NC)C(=O)N[C@H](C(=O)N[C@@H](CC(C)C)C(=O)N[C@@H](CO)C(=O)N[C@@H](CC(C)C)C(=O)N[C@@H](CC(=O)O)C(=O)N[C@@H](C(=O)N1CCC[C@H]1C(=O)N[C@H](C(=O)N[C@@H](CCCCN)C(=O)N[C@@H](CC(C)C)C(=O)N[C@@H](CCCCNC(=O)CC[C@H](NC(=O)CCCCCCCCCCCCCCCCCCC(=O)O)C(=O)O)C(=O)N[C@@H](CCCCN)C(=O)N[C@H](C(=O)N[C@@H](CC(C)C)C(=O)N[C@@H](CC(C)C)C(=O)N[C@@H](CCC(=O)O)C(=O)N[C@@H](CCC(N)=O)C(=O)N[C@@H](CCC(=O)O)C(=O)N[C@@H](CCCCN)C(=O)N[C@@H](CCC(N)=O)C(=O)N[C@@H](CCCCN)C(=O)N[C@@H](CCCCN)C(=O)N[C@@H](CCC(N)=O)C(=O)N[C@@H](CCCNC(=N)N)C(=O)N[C@@H](CCC(=O)O)C(=O)N[C@@H](CCC(N)=O)C(=O)N[C@@H](C)C(=O)N[C@@H](CCC(=O)O)C(=O)N[C@H](C(=O)N[C@@H](CC(N)=O)C(=O)NC(C)(C)C(=O)N[C@@H](CCC(N)=O)C(=O)N[C@H](C(=O)N[C@@H](CC(C)C)C(=O)N[C@@H](C)C(=O)N[C@@H](CCC(N)=O)C(=O)N[C@H](C(N)=O)C(C)C)[C@@H](C)CC)[C@@H](C)O)[C@@H](C)CC)[C@@H](C)CC)C(C)C)C(C)C [compound 214] (H-[NMeI]VLSLD[dV]PIKLK([γGlu-C20 diacid])KILLEQEKQKKQREQAETN[Aib]QILAQV-NH2) | 34 | > 250 | 72 | 0.12 | 0.0/0.0 ^ % | 0.0/0.0 ^ % |
| CC[C@H](C)[C@H](NC(C)=O)C(=O)N[C@H](C(=O)N[C@@H](CC(C)C)C(=O)N[C@@H](CO)C(=O)N[C@@H](CC(C)C)C(=O)N[C@@H](CC(=O)O)C(=O)N[C@@H](C(=O)N1CCC[C@H]1C(=O)N[C@H](C(=O)N[C@@H](CCCCN)C(=O)N[C@@H](CC(C)C)C(=O)N[C@@H](CCCCNC(=O)CC[C@H](NC(=O)CCCCCCCCCCCCCCC(=O)O)C(=O)O)C(=O)N[C@@H](CCCCN)C(=O)N[C@H](C(=O)N[C@@H](CC(C)C)C(=O)N[C@@H](CC(C)C)C(=O)N[C@@H](CCC(=O)O)C(=O)N[C@@H](CCC(N)=O)C(=O)N[C@@H](CCC(=O)O)C(=O)N[C@@H](CCCCN)C(=O)N[C@@H](CCC(N)=O)C(=O)N[C@@H](CCCCN)C(=O)N[C@@H](C)C(=O)N[C@@H](CCC(N)=O)C(=O)N[C@@H](CCCNC(=N)N)C(=O)N[C@@H](CCC(=O)O)C(=O)N[C@@H](CCC(N)=O)C(=O)N[C@@H](C)C(=O)N[C@@H](CCC(=O)O)C(=O)N[C@H](C(=O)N[C@@H](CC(N)=O)C(=O)NC(C)(C)C(=O)N[C@@H](CCC(N)=O)C(=O)N[C@H](C(=O)N[C@@H](CC(C)C)C(=O)N[C@@H](C)C(=O)N[C@@H](CCC(N)=O)C(=O)N[C@H](C(N)=O)C(C)C)[C@@H](C)CC)[C@@H](C)O)[C@@H](C)CC)[C@@H](C)CC)C(C)C)C(C)C [compound 161] (Ac-IVLSLD[dV]PIKLK([γGlu-C16 diacid])KILLEQEKQKAQREQAETN[Aib]QILAQV-NH2) | 3 | > 250 | 59 | 0.32 |  | 0.6/Not Tested % |
| CC[C@H](C)[C@H](NC(C)=O)C(=O)N[C@H](C(=O)N[C@@H](CC(C)C)C(=O)N[C@@H](CO)C(=O)N[C@@H](CC(C)C)C(=O)N[C@@H](CC(=O)O)C(=O)N[C@@H](C(=O)N1CCC[C@H]1C(=O)N[C@H](C(=O)N[C@@H](CCCCN)C(=O)N[C@@H](CC(C)C)C(=O)N[C@@H](CCCCNC(=O)CC[C@H](NC(=O)CCCCCCCCCCCCCCCCC(=O)O)C(=O)O)C(=O)N[C@@H](CCCCN)C(=O)N[C@H](C(=O)N[C@@H](CC(C)C)C(=O)N[C@@H](CC(C)C)C(=O)N[C@@H](CCC(=O)O)C(=O)N[C@@H](CCC(N)=O)C(=O)N[C@@H](CCC(=O)O)C(=O)N[C@@H](CCCCN)C(=O)N[C@@H](CCC(N)=O)C(=O)N[C@@H](CCCCN)C(=O)N[C@@H](CCCCN)C(=O)N[C@@H](CCC(N)=O)C(=O)N[C@@H](CCCNC(=N)N)C(=O)N[C@@H](CCC(=O)O)C(=O)N[C@@H](CCC(N)=O)C(=O)N[C@@H](C)C(=O)N[C@@H](CCC(=O)O)C(=O)N[C@H](C(=O)N[C@@H](CC(N)=O)C(=O)NC1(C(=O)N[C@@H](CCC(N)=O)C(=O)N[C@H](C(=O)N[C@@H](CC(C)C)C(=O)N[C@@H](C)C(=O)N[C@@H](CCC(N)=O)C(=O)N[C@H](C(N)=O)C(C)C)[C@@H](C)CC)CC1)[C@@H](C)O)[C@@H](C)CC)[C@@H](C)CC)C(C)C)C(C)C [compound 136] (Ac-IVLSLD[dV]PIKLK([γGlu-C18 diacid])KILLEQEKQKKQREQAETN[Ac3c]QILAQV-NH2) | 5 | > 250 | 78 | 0.16 | 0.0% | 24.3% |
